Literature values, collected in patent US5643912A, “Pyrazinoic acid esters as anti-mycobacterium avium agents” (The Research Foundation of State University of NY, priority 1996, dated 1997).

System: Mycobacterium (M.) tuberculosis
Details: cited from earlier work

## NC(=O)c1cnccn1 [pyrazinamide]
  resistance development: resistance develops quickly
